Results published in patent publication US4757079A, “Anti-hypertensive piperidine compounds” (Dynamac Corporaton, priority 1986, dated 1988).
Counter-ions that a name gives are not always drawn.

Tests used:
guinea pig ileum = assay: anticholinergic activity on the guinea pig ileum
cat [1] = assay: blood pressure and heart rate in the cat (i.v.); format: in vivo
[2] = test system: peripheral muscarinic receptors; assay: response to vagal stimulation or to exogenous acetylcholine in the cat; format: in vivo; details: 1 to 10 mg/kg i.v.
nictitating membrane = assay: responsiveness of the nictitating membrane to pre- or post-ganglionic stimulation in the cat; format: in vivo; details: 1 to 10 mg/kg i.v.
neuromuscular function = assay: neuromuscular twitch response in the cat; format: in vivo
cat [3] = assay: heart rate and mean blood pressure in cats pretreated with hexamethonium and atropine; format: in vivo; details: compared with absence of the blocking agents
[4] = test system: rat hemidiaphragm preparation; assay: rat hemidiaphragm preparation, perfusate volume (vasodilatory effect)

## CN1CCC(/C=C/c2cccc3ccccc23)CC1 [B-120, 1-methyl-4-(1-naphthylvinyl)piperidine hydrochloride]
Guinea pig ileum
  anticholinergic activity: essentially devoid of anticholinergic activity
Guinea pig ileum; relative to atropine sulfate
  anticholinergic potency on a relative scale vs atropine sulfate: 5.5×10^-4
Cat [1]; 5.0 mg/kg i.v., cat
  Heart Rate: 90 % Control
  Mean Blood Pressure: 60 % Control
  Pulse Pressure: 110 % Control
Cat [1]; 10.0 mg/kg i.v., cat
  Heart Rate: 80 % Control
  Mean Blood Pressure: 30 % Control
  Pulse Pressure: 70 % Control
Cat [1]; 50 mg/kg i.v., cat
  heart rate rhythm: did not show evidence of abnormal rhythm
Cat [1]; 50.0 mg/kg i.v., cat
  Heart Rate: 0 % Control
  Mean Blood Pressure: 0 % Control
  Pulse Pressure: 0 % Control
Cat [1]; 0.5 to 50 mg/kg i.v., cat
  Heart Rate: dose-related decrease
  Mean Blood Pressure: dose-related decrease
  diastolic versus systolic blood pressure: greater decrease in diastolic than systolic blood pressure
Cat [1]; in vivo
  death: death appeared to be caused by hypotensive crisis
[2]
  response to exogenous acetylcholine: did not alter the response
  response to vagal stimulation: did not alter the response
Nictitating membrane
  responsiveness of the nictitating membrane to pre- or post-ganglionic stimulation: did not diminish the responsiveness
Neuromuscular function
  neuromuscular twitch response: no significant decrease
Cat [3]
  reduction in heart rate: comparable to that induced in the absence of the blocking agents
  reduction in mean blood pressure: comparable to that induced in the absence of the blocking agents
[4]; 17.5 mg/L
  increase in perfusate volume: not significant
[4]; after 35 mg/L
  perfusate volume after removal of the B-120: returned to normal
